Data set [1] deals with T1, Bifunctional epoxide hydrolase 2 (Homo sapiens) (UniProt P34913).
T1 sequence (whole entry): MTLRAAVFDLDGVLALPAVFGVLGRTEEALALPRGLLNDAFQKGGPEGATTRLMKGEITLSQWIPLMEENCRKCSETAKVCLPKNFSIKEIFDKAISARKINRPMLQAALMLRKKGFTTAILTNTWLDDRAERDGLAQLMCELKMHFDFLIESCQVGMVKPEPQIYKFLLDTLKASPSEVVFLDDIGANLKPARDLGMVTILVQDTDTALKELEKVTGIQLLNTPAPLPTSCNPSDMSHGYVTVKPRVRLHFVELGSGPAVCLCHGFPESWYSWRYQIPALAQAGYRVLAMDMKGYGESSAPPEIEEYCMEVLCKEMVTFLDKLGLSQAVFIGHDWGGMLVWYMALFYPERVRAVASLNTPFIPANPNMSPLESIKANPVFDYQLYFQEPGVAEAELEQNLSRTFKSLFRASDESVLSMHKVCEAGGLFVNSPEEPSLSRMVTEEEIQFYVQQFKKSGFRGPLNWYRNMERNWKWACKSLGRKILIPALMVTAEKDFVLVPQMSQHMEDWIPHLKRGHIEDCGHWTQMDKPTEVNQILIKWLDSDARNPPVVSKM
As to the kind of experiment: Inhibition of sEH (unknown origin) at 100 nM relative to control.

A short description of data set [2]: Microsomal stability in human liver microsomes assessed as half life. In kind it is ADME, Microsome. In general terms: Liver microsomes are vesicles of endoplasmic reticulum, rich in cytochrome P450 enzymes.
Data set [3] can be described thus: Microsomal stability in dog liver microsomes assessed as half life. Type of data set: ADME, Canis lupus familiaris, Microsome.
Data set [4] in a line: Microsomal stability in rat liver microsomes assessed as half life. Type of data set: ADME, Microsome.
A short description of data set [5]: Microsomal stability in mouse liver microsomes assessed as half life. In kind it is ADME, Microsome.
Another data set has as its system Rattus norvegicus. In words: Antinociceptive activity in carrageenan-induced inflammatory pain Sprague-Dawley rat model assessed as increase in mechanical withdrawal threshold at 50 mg/kg, ip by von-frey filament assay. In kind it is functional, organism-based.

Activity calls are given as the source filed them.

The term inhibition denotes the relative decrease from the control value, in per cent. A low value points to a weak effect. For the compound `Cc1cc(C(=O)Nc2ccc(Cl)cc2)ccc1N(CC(C)C)C(=O)Nc1ccc(Cl)cc1`, the inhibition in data set [1] amounted to 69.4%.

Regarding `Cc1cc(C(=O)Nc2ccc(Cl)cc2)ccc1N(CCN(C)C)C(=O)Nc1ccc(Cl)cc1`, in data set [1], the inhibition was found to be 67.7%.

As usually defined, the half-life is how long it takes for the measured level to halve. Take `Cc1cc(C(=O)Nc2ccc(Cl)cc2)ccc1N(CC(=O)N1CCOCC1)C(=O)Nc1ccc(Cl)cc1`: the inhibition in data set [1] stood at 95.7%. Also, the half-life in data set [2] was 31.9 min; in data set [3], 37 min; in data set [4] it was 45.9 min; in data set [5] it was 28.3 min.

Take `CCN(CC)CCN(C(=O)Nc1ccc(Cl)cc1)c1ccc(C(=O)Nc2ccc(Cl)cc2)cc1C`: the inhibition in data set [1] amounted to 67.2%.

For `Cc1cc(C(=O)Nc2ccc(Cl)cc2)ccc1N(CCN1CCOC[C@@H]1C)C(=O)Nc1ccc(Cl)cc1`, in data set [1], the inhibition was determined as 63.1%.

In data set [1], `Cc1cc(C(=O)Nc2ccc(F)cn2)ccc1N(CCN1CCOCC1)C(=O)Nc1ccc(Cl)cc1` returned an inhibition of 97.8%.

As to `Cc1cc(C(=O)Nc2ccc(Cl)cc2)ccc1NC(=O)Nc1ccc(Cl)cc1`, the inhibition in data set [1] was 80.3%.

Consider `Cc1cc(C(=O)Nc2ccc(F)cn2)ccc1N(CCN1CCCC1)C(=O)Nc1ccc(Cl)cc1`, for which the inhibition in data set [1] was 94.8%. For the same compound, the half-life came out at 27.5 min in data set [2], 33.5 min in data set [3], 16 min in data set [4] and 26.2 min in data set [5].

With `O=C(NC12CC3CC(CC(C3)C1)C2)N[C@H]1CC[C@H](Oc2ccc(C(=O)O)cc2)CC1`, the outcome with Rattus norvegicus was Active.

Consider `Cc1cc(C(=O)Nc2ccc3c(c2)OCO3)ccc1N(CCN1CCCC1=O)C(=O)Nc1ccc(Cl)cc1`, for which the inhibition in data set [1] worked out at 92.7%. The half-life in data set [2] was 3.9 min; in data set [3] it was 3.3 min.

On to `Cc1cc(C(=O)Nc2ccc3c(c2)OCO3)ccc1N(CCN1CCOCC1)C(=O)Nc1ccc(Cl)cc1`, for which the inhibition in data set [1] amounted to 95.6%. In addition, the half-life in data set [2] stood at 6.9 min; in data set [3] it was 5.2 min; in data set [5], 4 min.

In turn, `Cc1cc(C(=O)Nc2ccc(Cl)cc2)ccc1N(CCN1CCCCC1)C(=O)Nc1ccc(Cl)cc1` had an inhibition in data set [1] of 92.5%.

Consider `Cc1cc(C(=O)Nc2ccc(Cl)cc2)ccc1N(CCN1CCCC1)C(=O)Nc1ccc(Cl)cc1`, for which, in data set [1], the inhibition came out at 98.5%. The half-life was determined as 197 min in data set [2], 137 min in data set [3], 27.3 min in data set [4] and 35.8 min in data set [5]. The outcome in the data set on Rattus norvegicus was Active.

Turning to `Cc1cc(C(N)=O)ccc1N(CCN1CCOCC1)C(=O)Nc1ccc(Cl)cc1`, the inhibition in data set [1] stood at 75.9%.

As for `Cc1cc(C(=O)Nc2ccc(C#N)cc2)ccc1N(CCN1CCOCC1)C(=O)Nc1ccc(Cl)cc1`, the inhibition in data set [1] amounted to 64%.

In data set [1], `Cc1cc(C(=O)Nc2ccc(Cl)cc2)ccc1N(CCO)C(=O)Nc1ccc(Cl)cc1` yielded an inhibition of 74.3%.

In turn, `Cc1cc(C(=O)Nc2ccc(Cl)cc2)ccc1N(CCN1CCSCC1)C(=O)Nc1ccc(Cl)cc1` returned an inhibition in data set [1] of 83.7%.

In turn, `COCCN(C(=O)Nc1ccc(Cl)cc1)c1ccc(C(=O)Nc2ccc(Cl)cc2)cc1C` showed an inhibition in data set [1] of 70.5%.

With `Cc1cc(C(=O)Nc2ccc(Cl)cc2)ccc1N(CCN1CC[S+]([O-])CC1)C(=O)Nc1ccc(Cl)cc1`, the inhibition in data set [1] was 90.4%.

In data set [1], `Cc1cc(C(=O)Nc2ccc(Cl)cc2)ccc1N(CCN1CCS(=O)(=O)CC1)C(=O)Nc1ccc(Cl)cc1` registered an inhibition of 95.2%.

As to `Cc1ccc(-c2cc(C(F)(F)F)nn2-c2ccc(S(N)(=O)=O)cc2)cc1`, the outcome in the data set on Rattus norvegicus was Active.

With `CC(=O)c1ccc(NC(=O)c2ccc(N(CCN3CCOCC3)C(=O)Nc3ccc(Cl)cc3)c(C)c2)cc1`, in data set [1], the inhibition was 84.5%.

In data set [1], `Cc1cc(C(=O)Nc2ccc3c(c2)OCO3)ccc1N(CCN1CCCC1)C(=O)Nc1ccc(Cl)cc1` returned an inhibition of 83.3%.

As to `Cc1cc(C(=O)Nc2nccs2)ccc1N(CCN1CCOCC1)C(=O)Nc1ccc(Cl)cc1`, in data set [1], the inhibition was determined as 62.8%.

In the case of `Cc1cc(C(=O)Nc2cnccn2)ccc1N(CCN1CCOCC1)C(=O)Nc1ccc(Cl)cc1`, the inhibition in data set [1] was determined as 62.3%.

Regarding `Cc1cc(C(=O)Nc2ccc(C(F)(F)F)nc2)ccc1N(CCN1CCOCC1)C(=O)Nc1ccc(Cl)cc1`, in data set [1], the inhibition was determined as 87.8%. For the same compound, the half-life in data set [2] amounted to 5.8 min; in data set [3], 5.4 min; in data set [4], 5.4 min; in data set [5], 7.7 min.

As for `Cc1cc(C(=O)Nc2ccc(Cl)cc2)ccc1N(CCN1CCOCC1=O)C(=O)Nc1ccc(Cl)cc1`, in data set [1], the inhibition came to 93.9%. Further, the half-life amounted to 9.1 min in data set [2], 12.9 min in data set [3], 10.7 min in data set [4] and 8.9 min in data set [5].

For the compound `Cc1cc(C(=O)Nc2cnn(C)c2)ccc1N(CCN1CCOCC1)C(=O)Nc1ccc(Cl)cc1`, the inhibition in data set [1] was determined as 87.7%.

On to `Cc1cc(C(=O)Nc2ccc(F)cn2)ccc1N(CCN1CCCC1=O)C(=O)Nc1ccc(Cl)cc1`, for which the inhibition in data set [1] is 94.5%. The half-life in data set [2] worked out at 4 min; in data set [3], 3.1 min; in data set [4], 3.1 min; in data set [5], 3.7 min.

For the compound `Cc1cc(C(=O)Nc2ccccn2)ccc1N(CCN1CCOCC1)C(=O)Nc1ccc(Cl)cc1`, the inhibition in data set [1] was 85.8%.

With `Cc1cc(C(=O)Nc2ccc(Cl)cc2)ccc1N(CCN1CCCC1=O)C(=O)Nc1ccc(Cl)cc1`, the inhibition in data set [1] is 98.9%. The half-life was 9.5 min in data set [2], 11 min in data set [3], 4.5 min in data set [4] and 8.8 min in data set [5].

In data set [1], `Cc1cc(C(=O)Nc2ccc(Cl)cc2)ccc1N(CCN1CCOC[C@H]1C)C(=O)Nc1ccc(Cl)cc1` showed an inhibition of 67.1%.

The values are drawn from ChEMBL document CHEMBL5126572, “Synthesis and biological evaluation of new series of benzamide derivatives containing urea moiety as sEH inhibitors” (Bioorg Med Chem Lett, 2022).
